Measured values from PubChem BioAssay AID248 (DTP/NCI, 2004).
Several values for one entry are separate records, joined by “and”; a condition that tells them apart may be missing. Equal values may be shown once. Toxic doses and inconclusive results are not listed.

System: L1210 leukemia ip in BDF1 mice, survival T/C
Assay: NCI In Vivo Anticancer Drug Screen. Data for tumor model L1210 Leukemia (intraperitoneal) in B6D2F1 (BDF1) mice
Settings: higher = longer survival
In short: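 Tumor cells were implanted, animals were treated, and survival was followed. The result divides the treated measurement by the vehicle-control measurement.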

Compound: c1cc2n(n1)CCN2
- T/C (endpoint: mean survival time, dose: 26.6 mg/kg/injection, schedule: Q01DX Z (ip), vehicle: methylcellulose (MC)): 110 % of control
- T/C (endpoint: mean survival time, dose: 40.0 mg/kg/injection, schedule: Q01DX Z (ip), vehicle: methylcellulose (MC)): 108 % of control
- T/C (endpoint: mean survival time, dose: 50.0 mg/kg/injection, schedule: Q01DX009 (ip), vehicle: water): 109 % of control
- T/C (endpoint: mean survival time, dose: 60.0 mg/kg/injection, schedule: Q01DX Z (ip), vehicle: methylcellulose (MC)): 107 % of control and 112 % of control
- T/C (endpoint: mean survival time, dose: 90.0 mg/kg/injection, schedule: Q01DX Z (ip), vehicle: methylcellulose (MC)): 104 % of control and 112 % of control
- T/C (endpoint: mean survival time, dose: 100.0 mg/kg/injection, schedule: Q01DX001 (ip), vehicle: saline): 103 % of control
- T/C (endpoint: mean survival time, dose: 100.0 mg/kg/injection, schedule: Q01DX001 (sc), vehicle: saline): 112 % of control
- T/C (endpoint: mean survival time, dose: 100.0 mg/kg/injection, schedule: Q01DX009 (ip), vehicle: saline): 112 % of control
- T/C (endpoint: mean survival time, dose: 100.0 mg/kg/injection, schedule: Q01DX009 (ip), vehicle: water): 107 % of control
- T/C (endpoint: mean survival time, dose: 100.0 mg/kg/injection, schedule: Q04DX003 (ip), vehicle: saline): 98 % of control and 100 % of control and 104 % of control
- T/C (endpoint: mean survival time, dose: 100.0 mg/kg/injection, schedule: Q04DX003 (ip), vehicle: water): 114 % of control
- T/C (endpoint: mean survival time, dose: 100.0 mg/kg/injection, schedule: Q04DX003 (sc), vehicle: saline): 102 % of control and 105 % of control
- T/C (endpoint: mean survival time, dose: 100.0 mg/kg/injection, schedule: Q08DX002 (ip), vehicle: saline): 105 % of control
- T/C (endpoint: mean survival time, dose: 132.0 mg/kg/injection, schedule: Q01DX009 (ip), vehicle: saline): 115 % of control
- T/C (endpoint: mean survival time, dose: 135.0 mg/kg/injection, schedule: Q01DX Z (ip), vehicle: methylcellulose (MC)): 100 % of control
- T/C (endpoint: mean survival time, dose: 200.0 mg/kg/injection, schedule: Q01DX001 (ip), vehicle: saline): 101 % of control
- T/C (endpoint: mean survival time, dose: 200.0 mg/kg/injection, schedule: Q01DX001 (oral), vehicle: saline): 105 % of control
- T/C (endpoint: mean survival time, dose: 200.0 mg/kg/injection, schedule: Q01DX001 (sc), vehicle: saline): 112 % of control
- T/C (endpoint: mean survival time, dose: 200.0 mg/kg/injection, schedule: Q01DX009 (ip), vehicle: water): 121 % of control
- T/C (endpoint: mean survival time, dose: 200.0 mg/kg/injection, schedule: Q04DX003 (ip), vehicle: saline): 98 % of control and 107 % of control and 124 % of control
- T/C (endpoint: mean survival time, dose: 200.0 mg/kg/injection, schedule: Q04DX003 (oral), vehicle: saline): 110 % of control and 116 % of control
- T/C (endpoint: mean survival time, dose: 200.0 mg/kg/injection, schedule: Q04DX003 (sc), vehicle: saline): 108 % of control and 118 % of control
- T/C (endpoint: mean survival time, dose: 200.0 mg/kg/injection, schedule: Q08DX002 (ip), vehicle: saline): 93 % of control
- T/C (endpoint: mean survival time, dose: 264.0 mg/kg/injection, schedule: Q04DX003 (ip), vehicle: saline): 110 % of control and 117 % of control
- T/C (endpoint: mean survival time, dose: 400.0 mg/kg/injection, schedule: Q01DX001 (ip), vehicle: saline): 116 % of control
- T/C (endpoint: mean survival time, dose: 400.0 mg/kg/injection, schedule: Q01DX001 (oral), vehicle: saline): 113 % of control
- T/C (endpoint: mean survival time, dose: 400.0 mg/kg/injection, schedule: Q04DX003 (ip), vehicle: water): 151 % of control
- T/C (endpoint: mean survival time, dose: 400.0 mg/kg/injection, schedule: Q04DX003 (oral), vehicle: saline): 124 % of control
- T/C (endpoint: mean survival time, dose: 400.0 mg/kg/injection, schedule: Q04DX003 (sc), vehicle: saline): 120 % of control
- T/C (endpoint: mean survival time, dose: 400.0 mg/kg/injection, schedule: Q08DX002 (ip), vehicle: saline): 101 % of control
- T/C (endpoint: mean survival time, dose: 600.0 mg/kg/injection, schedule: Q04DX003 (ip), vehicle: saline): 177 % of control
- T/C (endpoint: mean survival time, dose: 800.0 mg/kg/injection, schedule: Q01DX001 (oral), vehicle: saline): 119 % of control
- T/C (endpoint: mean survival time, dose: 800.0 mg/kg/injection, schedule: Q04DX003 (ip), vehicle: saline): 102 % of control and 104 % of control
- T/C (endpoint: mean survival time, dose: 800.0 mg/kg/injection, schedule: Q04DX003 (oral), vehicle: saline): 108 % of control and 118 % of control
- T/C (endpoint: mean survival time, dose: 800.0 mg/kg/injection, schedule: Q04DX003 (sc), vehicle: saline): 100 % of control
- T/C (endpoint: mean survival time, dose: 800.0 mg/kg/injection, schedule: Q08DX002 (ip), vehicle: saline): 158 % of control
- T/C (endpoint: median survival time, dose: 13.0 mg/kg/injection, schedule: Q03HX024 (ip), vehicle: saline): 102 % of control
- T/C (endpoint: median survival time, dose: 20.0 mg/kg/injection, schedule: Q03HX024 (ip), vehicle: saline): 100 % of control
- T/C (endpoint: median survival time, dose: 30.0 mg/kg/injection, schedule: Q03HX024 (ip), vehicle: saline): 103 % of control
- T/C (endpoint: median survival time, dose: 40.0 mg/kg/injection, schedule: Q01DX009 (ip), vehicle: saline): 104 % of control
- T/C (endpoint: median survival time, dose: 50.0 mg/kg/injection, schedule: Q01DX009 (oral), vehicle: saline): 110 % of control
- T/C (endpoint: median survival time, dose: 50.0 mg/kg/injection, schedule: Q01DX009 (sc), vehicle: saline): 100 % of control
- T/C (endpoint: median survival time, dose: 60.0 mg/kg/injection, schedule: Q01DX009 (ip), vehicle: saline): 111 % of control
- T/C (endpoint: median survival time, dose: 88.0 mg/kg/injection, schedule: Q01DX009 (ip), vehicle: saline): 113 % of control
- T/C (endpoint: median survival time, dose: 100.0 mg/kg/injection, schedule: Q01DX005 (ip), vehicle: saline): 111 % of control
- T/C (endpoint: median survival time, dose: 100.0 mg/kg/injection, schedule: Q01DX009 (ip), vehicle: saline): 113 % of control
- T/C (endpoint: median survival time, dose: 100.0 mg/kg/injection, schedule: Q01DX009 (oral), vehicle: saline): 115 % of control
- T/C (endpoint: median survival time, dose: 100.0 mg/kg/injection, schedule: Q01DX009 (sc), vehicle: saline): 120 % of control
- T/C (endpoint: median survival time, dose: 100.0 mg/kg/injection, schedule: Q04DX003 (ip), vehicle: Klucel (hydroxypropylcellulose) (HPC)): 105 % of control
- T/C (endpoint: median survival time, dose: 100.0 mg/kg/injection, schedule: Q04DX003 (ip), vehicle: saline): 116 % of control
- T/C (endpoint: median survival time, dose: 100.0 mg/kg/injection, schedule: Q08DX002 (ip), vehicle: saline): 100 % of control
- T/C (endpoint: median survival time, dose: 108.0 mg/kg/injection, schedule: Q04DX003 (ip), vehicle: saline): 100 % of control
- T/C (endpoint: median survival time, dose: 133.0 mg/kg/injection, schedule: Q01DX009 (ip), vehicle: saline): 121 % of control
- T/C (endpoint: median survival time, dose: 133.0 mg/kg/injection, schedule: Q04DX003 (ip), vehicle: saline): 119 % of control
- T/C (endpoint: median survival time, dose: 133.0 mg/kg/injection, schedule: Q08DX002 (ip), vehicle: saline): 119 % of control
- T/C (endpoint: median survival time, dose: 180.0 mg/kg/injection, schedule: Q04DX003 (ip), vehicle: saline): 100 % of control
- T/C (endpoint: median survival time, dose: 200.0 mg/kg/injection, schedule: Q01DX001 (ip), vehicle: saline): 103 % of control
- T/C (endpoint: median survival time, dose: 200.0 mg/kg/injection, schedule: Q01DX009 (ip), vehicle: saline): 106 % of control
- T/C (endpoint: median survival time, dose: 200.0 mg/kg/injection, schedule: Q01DX009 (oral), vehicle: saline): 86 % of control
- T/C (endpoint: median survival time, dose: 200.0 mg/kg/injection, schedule: Q01DX009 (sc), vehicle: saline): 150 % of control
- T/C (endpoint: median survival time, dose: 200.0 mg/kg/injection, schedule: Q04DX003 (oral), vehicle: saline): 119 % of control and 120 % of control
- T/C (endpoint: median survival time, dose: 200.0 mg/kg/injection, schedule: Q08DX002 (oral), vehicle: saline): 111 % of control and 120 % of control
- T/C (endpoint: median survival time, dose: 300.0 mg/kg/injection, schedule: Q01DX001 (ip), vehicle: saline): 104 % of control
- T/C (endpoint: median survival time, dose: 300.0 mg/kg/injection, schedule: Q04DX003 (ip), vehicle: saline): 110 % of control
- T/C (endpoint: median survival time, dose: 400.0 mg/kg/injection, schedule: Q04DX003 (ip), vehicle: Klucel (hydroxypropylcellulose) (HPC)): 150 % of control
- T/C (endpoint: median survival time, dose: 400.0 mg/kg/injection, schedule: Q04DX003 (ip), vehicle: saline): 166 % of control
- T/C (endpoint: median survival time, dose: 400.0 mg/kg/injection, schedule: Q04DX003 (sc), vehicle: saline): 195 % of control
- T/C (endpoint: median survival time, dose: 400.0 mg/kg/injection, schedule: Q08DX002 (ip), vehicle: saline): 150 % of control
- T/C (endpoint: median survival time, dose: 444.0 mg/kg/injection, schedule: Q01DX001 (ip), vehicle: saline): 114 % of control
- T/C (endpoint: median survival time, dose: 600.0 mg/kg/injection, schedule: Q04DX003 (ip), vehicle: saline): 101 % of control
- T/C (endpoint: median survival time, dose: 600.0 mg/kg/injection, schedule: Q04DX003 (oral), vehicle: saline): 90 % of control
- T/C (endpoint: median survival time, dose: 600.0 mg/kg/injection, schedule: Q04DX003 (sc), vehicle: saline): 150 % of control
- T/C (endpoint: median survival time, dose: 600.0 mg/kg/injection, schedule: Q08DX002 (oral), vehicle: saline): 165 % of control
- T/C (endpoint: median survival time, dose: 600.0 mg/kg/injection, schedule: Q08DX002 (sc), vehicle: saline): 180 % of control
- T/C (endpoint: median survival time, dose: 660.0 mg/kg/injection, schedule: Q08DX002 (ip), vehicle: saline): 161 % of control
- T/C (endpoint: median survival time, dose: 800.0 mg/kg/injection, schedule: Q04DX003 (ip), vehicle: saline): 106 % of control and 70 % of control
